In article PMC7796304, “Nephrotoxic Potential of Putative 3,5-Dichloroaniline (3,5-DCA) Metabolites and Biotransformation of 3,5-DCA in Isolated Kidney Cells from Fischer 344 Rats” (International Journal of Molecular Sciences, 2020):

Experiments:
[1] = test system: isolated kidney cells (IKC); assay: Effect of DEDTCA pretreatment on 3,5-DCA metabolism in IKC; conditions: 90 min; for detection as 3,5-DCA metabolite in media and cells: DEDTCA experiment; for detection as 3,5-DCA metabolite in media and cells / Percent of Dose, Cells / Percent of Dose, Media: 3,5-DCA 1.0 mM; for Percent of Dose, Cells / Percent of Dose, Media: N = 4, mean ± SE
Method: In a separate experiment, cells were pretreated with diethyldithiocarbamic acid (DEDTCA, 0.1 mM, 30 min pretreatment), a CYP2C inhibitor, before 3,5-DCA addition to determine which metabolites were decreased with DEDTCA pretreatment. Following the 90 min incubation period, cells and media were treated and stored as described above for the determination of 3,5-DCA concentrations and the concentrations of 3,5-DCA metabolites formed.
Samples (75 µL) of media and lysed IKC were analyzed on a Waters Alliance e2695 HPLC system (Waters Co., Milford, MA, USA), utilizing a Waters 2489 variable UV/Vis detector at 254 nM. Chromatograms were collected and integrated using Empower 3 software (Waters Co., Milford, MA, USA). A Waters X Select HSS T3 C18 column (3.5 µm; 4.6 × 150 mm^2) fitted with a Waters XSelect HSS T3 VanGuard Cartridge (3.5 µm; 3.9 × 5 mm^2) was used for separation of compounds. The mobile phase consisted of 50:50 methanol:water with a flow rate of 0.75 mL/min. Standard curves, limits of detection, and extraction coefficients were determined for 3,5-DCA and putative metabolites. Extraction coefficients were determined by comparing the integration of a 1.0 mM 3,5-DCA or a metabolite sample that had undergone sample processing (i.e., the addition of methanol and centrifugation) to that of a unprocessed 1.0 mM 3,5-DCA or metabolite sample.

[2] = test system: isolated kidney cells (IKC); assay: LDH release cytotoxicity, time and concentration course, in isolated kidney cells; conditions: for LDH release (marker of cytotoxicity) / nephrotoxic potential among the metabolites tested: 0-1.5 mM; for LDH release (marker of cytotoxicity): 60 or 90 min; for nephrotoxic potential among the metabolites tested: up to 90 min
[3] = test system: isolated kidney cells (IKC); assay: 3,5-DCA metabolism by IKC, HPLC of media and cells; conditions: for free aminochlorophenol after arylsulfatase or β-glucuronidase treatment of media or cell lysates: 45 or 90 min
Method: At the end of the incubation period, 1.0 mL samples were collected, and media and cells separated by centrifugation. The pelleted cells were washed with KH buffer (no bovine serum albumin), and the rinse was added to the media. Cells were lysed via sonication and protein was precipitated by methanol (1.0 mL) addition to all samples. Samples were centrifuged (3000 g; 10 min, 4 °C) and the supernatant filtered through a 0.45 µ syringe filter and stored at −20 °C until analyzed by HPLC as described below.
To determine if sulfate or glucuronide conjugates were formed, in some experiments, media and cell supernatant fractions obtained as described above were treated with β-glucuronidase (6500 units/mL, final concentration) or arylsulfatase (200 units/mL, final concentration) + saccaharolactone (20 mM, final concentration) for 18 h (37 °C) in 0.1 M acetate buffer (pH 5.0) to hydrolyze any glucuronide or sulfate conjugates, respectively, that were formed [26]. Hydrolysis was stopped by the addition of cold methanol (2.4 mL). The fractions were then filtered and stored until analyzed as described above.
Chromatograms were collected and integrated using Empower 3 software (Waters Co., Milford, MA, USA). A Waters X Select HSS T3 C18 column (3.5 µm; 4.6 × 150 mm^2) fitted with a Waters XSelect HSS T3 VanGuard Cartridge (3.5 µm; 3.9 × 5 mm^2) was used for separation of compounds. The mobile phase consisted of 50:50 methanol:water with a flow rate of 0.75 mL/min. Standard curves, limits of detection, and extraction coefficients were determined for 3,5-DCA and putative metabolites. Extraction coefficients were determined by comparing the integration of a 1.0 mM 3,5-DCA or a metabolite sample that had undergone sample processing (i.e., the addition of methanol and centrifugation) to that of a unprocessed 1.0 mM 3,5-DCA or metabolite sample.

[4] = parameters: method as in PMID 26808022; conditions: calculated, Fischer 344 rat; cited from earlier work
[5] = test system: isolated kidney cells (IKC); parameters: method as in PMID 26808022; conditions: 90 min exposure; cited from earlier work
[6] = test system: kidney; conditions: cited from earlier work
[7] = test system: isolated kidney cells (IKC); parameters: method as in PMID 26808022; conditions: cited from earlier work
[8] = test system: renal cortical slices; conditions: cited from earlier work
[9] = test system: rat renal cortical slices; parameters: method as in PMID 8023337; conditions: cited from earlier work
[10] = test system: rat renal cortical slices; parameters: method as in PMID 18243470; conditions: 2 h exposure; cited from earlier work
[11] = test system: isolated kidney cells (IKC); parameters: method as in PMID 26808022; conditions: cited from earlier work; remark: listed apart in the source
[12] = test system: isolated kidney cells (IKC); assay: Pretreatment with antioxidants or enzyme inhibitors before 3,5-DCNB, LDH release in IKC; conditions: 1.0 mM 3,5-DCNB, 60 min, pretreatment concentrations per Table 4
[13] = test system: isolated kidney cells (IKC); conditions: 0.5 mM 3,5-DCPHA, 60 min, pretreatment concentrations per Table 4
[14] = IKC incubated with 1.0 mM 3,5-DCA
[15] = +DEDTCA (0.1 mM, 30 min pretreatment)
[16] = IKC incubated with 0.5 mM 3,5-DCA, 90 min, N = 3, mean ± SE
[17] = IKC incubated with 1.0 mM 3,5-DCA, 90 min, N = 4, mean ± SE

Nc1cc(Cl)cc(Cl)c1O [2-A-4,6-DCP, 2-amino-4,6-dichlorophenol]
detection as 3,5-DCA metabolite in media and cells [1]: no 2-A-4,6-DCP, 4-A-2,6-DCP or 3,5-DCPHA detected
LDH release (marker of cytotoxicity) [2]: did not result in significant increases in LDH release
nephrotoxic potential among the metabolites tested [2]: not cytotoxic
free aminochlorophenol after arylsulfatase or β-glucuronidase treatment of media or cell lysates [3, 14]: did not reveal any free 2-A-4,6-DCP or 4-A-2,6-DCP

Nc1cc(Cl)cc(Cl)c1 [3,5-DCA, 3,5-dichloroaniline]
maximum blood level from a nephrotoxic dose [4]: ~ 1.25 mM
Percent of Dose, Cells [1, 15]: 14.67 ± 1.78%
Percent of Dose, Media [1, 15]: 91.14 ± 3.04%
Percent of Dose, Cells ([1]; −DEDTCA): 16.01 ± 2.02%
Percent of Dose, Media ([1]; −DEDTCA): 89.43 ± 5.66%
concentration leading to increased LDH release [5]: ≥ 1000 µM
renal effects of in vivo exposure ([6]; Sprague–Dawley or Fischer 344 rats): elevated blood urea nitrogen (BUN) concentration, decreased organic ion transport in proximal tubular cells, decreased kidney weight, proteinuria, and hematuria
reduced and total glutathione levels [7]: both reduced
concentration that induces cytotoxicity (increased LDH release) ([2]; 90 min): 1000 µM
non-cytotoxic concentration ([2]; 90 min): 0.5 mM
Percentage of Dose, Cells [3, 16]: 6.82 ± 3.33%
Percentage of Dose, Media [3, 16]: 89.31 ± 6.32%
Percentage of Dose, Cells [3, 17]: 13.19 ± 2.12%
Percentage of Dose, Media [3, 17]: 87.13 ± 4.56%
fraction of 3,5-DCA metabolized to 3,5-DCAA and 3,5-DCNB ([3]; IKC, 0.5 or 1.0 mM, 90 min): Less than 5%

CC(=O)Nc1cc(Cl)cc(Cl)c1 [3,5-DCAA, 3,5-dichloroacetanilide]
Percent of Dose, Media [1, 15]: 0.30 ± 0.05%
Percent of Dose, Cells ([1]; −DEDTCA): 0.02 ^ %
Percent of Dose, Media ([1]; −DEDTCA): 0.50 ± 0.03%
LDH release (marker of cytotoxicity) [2]: did not significantly increase LDH release
nephrotoxic potential among the metabolites tested [2]: not cytotoxic
Percentage of Dose, Cells [3, 16]: 0.07 ^ %
Percentage of Dose, Media [3, 16]: 1.86 ± 0.42%
Percentage of Dose, Media [3, 17]: 0.56 ± 0.07%

O=[N+]([O-])c1cc(Cl)cc(Cl)c1 [3,5-DCNB, 3,5-dichloronitrobenzene]
Percent of Dose, Cells [1, 15]: 0.06 ^ %
Percent of Dose, Media [1, 15]: 0.09 ^ %
Percent of Dose, Cells ([1]; −DEDTCA): 0.13 ^ %
Percent of Dose, Media ([1]; −DEDTCA): 0.31 ± 0.19 %
nephrotoxic potential among the metabolites tested [2]: intermediate in nephrotoxic potential
concentration giving significant increase in LDH release ([2]; 90 min exposure): ≥ 1000 µM
Percentage of Dose, Cells [3, 16]: 0.41 ^ %
Percentage of Dose, Media [3, 16]: 2.80 ^ %
Percentage of Dose, Cells [3, 17]: 0.34 ± 0.19 %
Percentage of Dose, Media [3, 17]: 1.18 ± 0.57 %
nephrotoxic potential among dichloronitrobenzenes [8]: least potent nephrotoxicant among the dichloronitrobenzenes

ONc1cc(Cl)cc(Cl)c1 [3,5-DCPHA]
detection as 3,5-DCA metabolite in media and cells [1]: no 2-A-4,6-DCP, 4-A-2,6-DCP or 3,5-DCPHA detected
nephrotoxic potential among the metabolites tested [2]: most potent nephrotoxicant
concentration giving significant increase in LDH release ([2]; 60 min exposure): ≥ 250 µM
concentration giving significant increase in LDH release ([2]; 90 min exposure): ≥ 250 µM

Nc1cc(Cl)c(O)c(Cl)c1 [4-A-2,6-DCP, 4-amino-2,6-dichlorophenol]
concentration reducing uptake of p-aminohippurate (PAH) [9]: 5 µM
concentration reducing uptake of tetraethylammonium (TEA) [9]: 50 µM
concentration increasing LDH release [10]: ≥ 50 µM
detection as 3,5-DCA metabolite in media and cells [1]: no 2-A-4,6-DCP, 4-A-2,6-DCP or 3,5-DCPHA detected
nephrotoxicity in vivo ([6]; male Fischer 344 rats, 0.38 mmol/kg, i.p.): marked nephrotoxicity
concentration required to increase LDH release ([2]; 90 min exposure, albumin in medium, no reference given): ≥ 250 µM
free aminochlorophenol after arylsulfatase or β-glucuronidase treatment of media or cell lysates [3, 14]: did not reveal any free 2-A-4,6-DCP or 4-A-2,6-DCP

CCN(CC)C(=S)S [DEDTCA, diethyldithiocarbamic acid, reference compound]
effect of pretreatment on 3,5-DCA metabolite formation ([1]; DEDTCA 0.1 mM, then 3,5-DCA 1.0 mM): formation of 3,5-DCAA and 3,5-DCNB were reduced
effect of inhibitor pretreatment on 3,5-DCA cytotoxicity [11]: markedly reduced 3,5-DCA cytotoxicity

COc1ccc2c(c1)c(CC(=O)O)c(C)n2C(=O)c1ccc(Cl)cc1 [Indomethacin]
effect of pretreatment on 3,5-DCNB-induced cytotoxicity (LDH release) [12]: tended to reduce 3,5-DCNB-induced LDH release but did not reach a significant difference

CC(=O)N[C@@H](CS)C(=O)O [N-acetyl-L-cysteine]
effect of pretreatment on 3,5-DCNB-induced cytotoxicity (LDH release) [12]: significantly attenuated
effect of pretreatment on 3,5-DCPHA-induced cytotoxicity (LDH release) [13]: partially attenuated

O=C1O[C@H]([C@@H](O)CO)C(O)=C1O [ascorbate]
effect of pretreatment on 3,5-DCNB-induced cytotoxicity (LDH release) [12]: significantly attenuated
effect of pretreatment on 3,5-DCPHA-induced cytotoxicity (LDH release) [13]: not effective at reducing 3,5-DCPHA cytotoxicity

N[C@@H](CCC(=O)N[C@@H](CS)C(=O)NCC(=O)O)C(=O)O [glutathione]
effect of pretreatment on 3,5-DCNB-induced cytotoxicity (LDH release) [12]: significantly attenuated
effect of pretreatment on 3,5-DCPHA-induced cytotoxicity (LDH release) [13]: fully protected

NNC(=O)c1ccncc1 [isoniazid]
effect of inhibitor pretreatment on 3,5-DCA cytotoxicity [11]: had no effect on 3,5-DCA cytotoxicity

O=C(O)CC(S)C(=O)O (stereo not shown) [mercaptosuccinate]
effect of pretreatment on 3,5-DCNB-induced cytotoxicity (LDH release) [12]: significantly attenuated

CC(C)(C(=O)c1cccnc1)c1cccnc1 [metyrapone]
effect of pretreatment on 3,5-DCNB-induced cytotoxicity (LDH release) [12]: significantly attenuated

CCCCCCCCN [n-octylamine]
effect of pretreatment on 3,5-DCNB-induced cytotoxicity (LDH release) [12]: significantly attenuated

CCCCOCCOCCOCc1cc2c(cc1CCC)OCO2 [piperonyl butoxide]
effect of pretreatment on 3,5-DCNB-induced cytotoxicity (LDH release) [12]: significantly attenuated

Cc1c(C)c2c(c(C)c1O)CC[C@@](C)(CCC[C@H](C)CCC[C@H](C)CCCC(C)C)O2 [α-tocopherol]
effect of pretreatment on 3,5-DCNB-induced cytotoxicity (LDH release) [12]: significantly attenuated
